Measurements from patent publication US12215106B2, “Pharmaceutical compounds and therapeutic methods” (RUTGERS, THE STATE UNIVERSITY OF NEW JERSEY, priority 2018, dated 2025).
Counter-ions that a name gives are not always drawn. Like-named read-outs stand apart in the source and are kept apart here.

Assay: Plasma pharmacokinetics and brain distribution after single IV, IP and oral administration
Assay type: in vivo
Settings: male, C57BL/6, mouse
Method: The objective of this study was to investigate the plasma pharmacokinetics and brain distribution of Compound (14 in male C57BL/6 mice following a single intravenous, intraperitoneal and oral administration. A group of sixty-three male mice were divided into three groups (Group 1: 2 mg/kg/IV; Group 2: 10 mg/kg/IP and Group 3: 10 mg/kg/PO) with each group comprising of twenty-one mice.
Animals in Group 1 were administered intravenously with Compound 15 solution formulation in 5% NMP, 5% Solutol HS-15, 30% PEG-400 and 60% Captisol (20% w/v) at 2 mg/kg dose. […] Considering mortality intravenous dose was reduced to 2 mg/kg.
Animals in Group 2 and 3 were administered with Compound 15 solution formulation in 5% NMP, 5% Solutol HS-15, 30% PEG-400 and 60% Captisol (20% w/v) at a dose of 10 mg/kg by intraperitoneal and oral route respectively.
(§1) Blood samples (approximately 60 μL) were collected under light isoflurane anesthesia from retro orbital plexus from a set of three mice at 0.08, 0.35, 1, 3, 6, 12 and 24 hr. Plasma samples were separated by centrifugation of whole blood and stored below −70±10° C. until bioanalysis. Immediately after collection of blood, brain samples were collected from set of three mice at each time point. Brain samples were homogenized using ice-cold phosphate buffer saline (pH-7.4) in a ratio of 2 (buffer):1(brain); and homogenates were stored below −70±10° C. until analysis. Total homogenate volume was three times the brain weight. All samples were processed for analysis by protein precipitation using acetonitrile and analyzed with fit-for-purpose LC/MS/MS method (LLOQ2.00 ng/mL for plasma and 3.00 ng/g for brain). Pharmacokinetic parameters were calculated using the non-compartmental analysis tool of Phoenix WinNonlin® (Version 7.0). Pharmacokinetic parameters of Compound 15 are summarized below.
The objective of this study was to investigate the plasma pharmacokinetics and brain distribution of Compound 16 in male C57BL/6 mice following a single intravenous, intraperitoneal and oral administration. A group of sixty-three male mice were divided into three groups (Group 1: 10 mg/kg/IV; Group 2: 10 mg/kg/IP and Group 3: 10 mg/kg/PO) with each group comprising of twenty-one mice.
Animals in Group 1 were administered intravenously with Compound 16 solution formulation in 5% NMP, 5% Solutol HS-15 and 90% normal saline at 10 mg/kg dose.
Animals in Group 2 and 3 were administered with Compound 16 solution formulation in 5% NMP, 5% Solutol HS-15 and 90% normal saline at a dose of 10 mg/kg by intraperitoneal and oral route respectively.
as §1, with “(LLOQ—1.00” for “(LLOQ2.00”, “16” for “15”
The objective of this study was to investigate the plasma pharmacokinetics and brain distribution of Compound 17 in male C57BL/6 mice following a single intravenous, intraperitoneal and oral administration. A group of sixty-three male mice were divided into three groups (Group 1: 2 mg/kg/IV; Group 2: 10 mg/kg/IP and Group 3: 10 mg/kg/PO) with each group comprising of twenty-one mice. […]

[1] = brain, ip, 10 mg/kg, IP 10 mg/kg, read-out: Brain-to-plasma ratio
[2] = brain, po, 10 mg/kg, PO 10 mg/kg, read-out: Brain-to-plasma ratio
[3] = in vivo, ip, 10 mg/kg, Brain concentration, individual animal
[4] = in vivo, ip, 10 mg/kg, Mean brain conc.
[5] = in vivo, ip, 10 mg/kg, Mean plasma conc.
[6] = in vivo, ip, 10 mg/kg, Plasma concentration, individual animal
[7] = in vivo, iv, 2 mg/kg, Brain concentration, individual animal

[2H]C([2H])([2H])Oc1ccc(Nc2nc(-c3c(C)nc4ccccn34)cs2)cc1 [Compound 15, N-(4-(methoxy-d3)phenyl)-4-(2-methylimidazo[1,2-c]pyridin-3-yl)thiazol-2-amine hydrochloride]
Kp at 0.08 h [1]: 0.19
Kp at 0.35 h [1]: 0.63
Kp at 1 h [1]: 0.75
Kp at 3 h [1]: 0.36
Kp at 6 h [1]: 0.38
Kp (brain, ip, 10 mg/kg, IP 10 mg/kg, read-out: brain-to-plasma ratio, range over time): 0.19 to 0.75
Kp (brain, iv, 2 mg/kg, IV 2 mg/kg, read-out: brain-to-plasma ratio, range over time): 1.17 to 1.64
Kp at 0.08 h [2]: 0.1
Kp at 0.35 h [2]: 0.41
Kp at 1 h [2]: 1.03
Kp at 3 h [2]: 0.7
Kp at 6 h [2]: 0.6
Kp at 12 h (brain, po, 10 mg/kg, PO 10 mg/kg, 12 hr, read-out: Brain-to-plasma ratio): 0.62
Kp (brain, po, 10 mg/kg, PO 10 mg/kg, read-out: brain-to-plasma ratio, range over time): 0.1 to 1.03
Kp (brain, po, 10 mg/kg, summary data, read-out: Brain to plasma ratio following a single oral dose): 1.03
Brain concentrations quantifiable up to (in vivo, ip, 10 mg/kg): up to 6 hr
Plasma concentrations quantifiable up to (in vivo, ip, 10 mg/kg): up to 6 hr
Brain concentration, individual animal (in vivo, ip, 10 mg/kg, 12 h): 0.00 ng/g
Plasma concentration, individual animal (in vivo, ip, 10 mg/kg, 12 h): 0.00 ng/mL
Brain concentration, individual animal (in vivo, ip, 10 mg/kg, 24 h): 0.00 ng/g
Plasma concentration, individual animal (in vivo, ip, 10 mg/kg, 24 h): 0.00 ng/mL
concentration at 0.08 h [3]: 38.4 ng/g
concentration at 0.35 h [3]: 287 ng/g
concentration at 1 h [3]: 383 ng/g
concentration at 3 h [3]: 48.4 ng/g
concentration at 12 h [3]: 0 ng/g
concentration at 24 h [3]: 0 ng/g
concentration at 0.08 h [4]: 43.6 ng/g
concentration at 0.35 h [4]: 266 ng/g
concentration at 1 h [4]: 305 ng/g
concentration at 3 h [4]: 57.7 ng/g
concentration at 6 h [4]: 6.06 ng/g
concentration at 12 h [4]: 0 ng/g
concentration at 24 h [4]: 0 ng/g
concentration at 0.08 h [5]: 229 ng/mL
concentration at 0.35 h [5]: 422 ng/mL
concentration at 1 h [5]: 409 ng/mL
concentration at 3 h [5]: 160 ng/mL
concentration at 6 h [5]: 16.1 ng/mL
concentration at 12 h [5]: 0 ng/mL
concentration at 24 h [5]: 0 ng/mL
concentration at 0.08 h [6]: 228 ng/mL
concentration at 0.35 h [6]: 467 ng/mL
concentration at 1 h [6]: 563 ng/mL
concentration at 3 h [6]: 174 ng/mL
concentration at 12 h [6]: 0 ng/mL
concentration at 24 h [6]: 0 ng/mL
Brain concentrations quantifiable up to (in vivo, iv, 2 mg/kg): up to 3 hr
Vss, fold more than normal volume of total body water (0.7 L/kg) (in vivo, iv, 2 mg/kg): 11 fold
Brain concentration, individual animal (in vivo, iv, 2 mg/kg, 6 h): 0.00 ng/g
Plasma concentration, individual animal (in vivo, iv, 2 mg/kg, 6 h): 0.00 ng/mL
Brain concentration, individual animal (in vivo, iv, 2 mg/kg, 12 h): 0.00 ng/g
Plasma concentration, individual animal (in vivo, iv, 2 mg/kg, 12 h): 0.00 ng/mL
Brain concentration, individual animal (in vivo, iv, 2 mg/kg, 24 h): 0.00 ng/g
Plasma concentration, individual animal (in vivo, iv, 2 mg/kg, 24 h): 0.00 ng/mL
concentration at 0.08 h [7]: 392 ng/g
concentration at 0.35 h [7]: 270 ng/g
